Experimental data taken from ChEMBL document CHEMBL4706603, “Discovery of VEGFR-2 inhibitors exerting significant anticancer activity against CD44+ and CD133+ cancer stem cells (CSCs): Reversal of TGF-β induced epithelial-mesenchymal transition (EMT) in hepatocellular carcinoma” (Eur J Med Chem, 2020).
Activity calls are given as the source filed them. The rule behind the calls is not given here.

How the values were obtained:
[1] = Toxicity in female Wistar rat assessed as hard abdomen at 2000 mg/kg, po observed for 48 hrs; assay type: organism-based; conditions: in vivo
[2] = Inhibition of VEGF expression in human HUVEC assessed as mean fluorescence intensity at IC50 incubated for 48 hrs by FITC based flow cytometry analysis (reference value: 53.91+/- 0.95); assay type: functional
[3] = Toxicity in Wistar rat assessed as toxic signs at 5 to 300 mg/kg, po and observed for 14 days; assay type: organism-based; conditions: in vivo, 336 h, dose 5-300 mg/kg, time 14 day
MDA-MB-231 [4] = assay: Induction of apoptosis in human MDA-MB-231 cells assessed as necrotic cells at IC50 incubated for 72 hrs by Alexa Fluor488-annexin V/PI staining based flow cytometric analysis (Rvb= 0.0 %); assay type: functional
HepG2 [5] = assay: Inhibition of epithelial-mesenchymal transition in TGF-beta-induced human HepG2 cells assessed as E-cadherin expression at IC50 incubated for 48 hrs by flow cytometry analysis (reference value: 2.92 %); assay type: functional; parameters: scale not given: the % may be the effect or the level left
HepG2 [6] = assay: Inhibition of epithelial-mesenchymal transition in TGF-beta-induced human HepG2 cells assessed as vimentin expression at IC50 incubated for 48 hrs by flow cytometry analysis (reference value: 98.19 %); assay type: functional; parameters: scale not given: the % may be the effect or the level left
MDA-MB-231 [7] = assay: Cytotoxicity against human MDA-MB-231 cells assessed as reduction in cell viability by trypan blue assay; assay type: functional, cell-based
HepG2 [8] = assay: Induction of apoptosis in human HepG2 cells assessed as early apoptotic cells by measuring green fluorescence at IC50 incubated for 24 hrs by Alexa Fluor488-annexin V/PI staining based fluorescence analysis; assay type: functional, cell-based
[9] = Toxicity in Wistar rat assessed as effect on relative weight of liver at 5 to 2000 mg/kg, po and measured on day 15; assay type: organism-based; conditions: in vivo, 360 h, dose 5-2000 mg/kg, time 15 day
[10] = Toxicity in female Wistar rat assessed as apathy occurence at 2000 mg/kg, po observed for 48 hrs; assay type: organism-based; conditions: in vivo
HepG2 [11] = assay: Induction of apoptosis in human HepG2 cells assessed as late apoptotic cells by measuring green fluorescence membrane with fragmented red nucleus at IC50 incubated for 24 hrs by Alexa Fluor488-annexin V/PI staining based fluorescence analysis; assay type: functional, cell-based
[12] = Toxicity in Wistar rat assessed as effect on ALP level in serum at 5 to 2000 mg/kg, po and measured on day 15; assay type: organism-based; conditions: in vivo, 360 h, dose 5-2000 mg/kg, time 15 day
[13] = Retention time in Wistar rat plasma by HPLC-MS analysis; assay type: ADME, cell-free
MCF7 [14] = assay: Cytotoxicity against human MCF7 cells assessed as reduction in cell viability incubated for 24 hrs by MTT assay; assay type: functional, cell-based
HepG2 [15] = assay: Cytotoxicity against human HepG2 cells assessed as reduction in cell viability by trypan blue assay; assay type: functional, cell-based
HepG2 [16] = assay: Induction of cell cycle arrest in human HepG2 cells harboring CD44+ assessed as increase in G0/G1 phase arrest at IC50 concentration incubated for 48 hrs by PI staining based flow cytometry analysis; assay type: functional
[17] = MRT in Wistar rat at 5 mg/kg, po measured upto 72 hrs by HPLC-MS analysis; assay type: ADME, organism-based; conditions: in vivo
Chorioallantoic membrane = assay: Antiangiogenic activity in chicken fertilized egg chorioallantoic membrane measured upto 72 hrs by CAM assay; assay type: functional, tissue-based; conditions: Gallus gallus, dose 0.01-2 µM, time hrs <=72
[18] = Toxicity in Wistar rat assessed as mortality of organism at 5 to 2000 mg/kg, po and observed for 14 days; assay type: organism-based; conditions: in vivo, 336 h, dose 5-2000 mg/kg, time 14 day
[19] = Toxicity in po dosed Wistar rat; assay type: organism-based; conditions: in vivo
MDA-MB-231 [20] = assay: Cytotoxicity against human MDA-MB-231 cells assessed as reduction in cell viability incubated for 24 hrs by MTT assay; assay type: functional, cell-based
[21] = Toxicity in Wistar rat assessed as normal cardiac muscles and cardiac fibers with intact length without inflammatory changes at 2000 mg/kg, po and measured on day 15 by microscopic analysis; assay type: organism-based; conditions: in vivo, 360 h, time 15 day
[22] = Inhibition of VEGFR2 expression in human HUVEC assessed as mean fluorescence intensity at IC50 incubated for 48 hrs by FITC based flow cytometry analysis (reference value: 49.24 +/- 0.47); assay type: functional
[23] = Toxicity in Wistar rat assessed as normal splenic tissue with normal red and white pulp with lymphoid cellular population at 2000 mg/kg, po and measured on day 15 by microscopic analysis; assay type: organism-based; conditions: in vivo, 360 h, time 15 day
[24] = Toxicity in Wistar rat assessed as effect on SGPT level at 5 to 2000 mg/kg, po and measured on day 15; assay type: organism-based; conditions: in vivo, 360 h, dose 5-2000 mg/kg, time 15 day
[25] = AUC (0 to 72 hrs) in Wistar rat at 5 mg/kg, po measured upto 72 hrs by HPLC-MS analysis; assay type: ADME, organism-based; parameters: route oral, dose 5 mg/kg, time <=72; conditions: in vivo
[26] = Toxicity in Wistar rat assessed as effect on uric acid level in serum at 5 to 2000 mg/kg, po and measured on day 15; assay type: organism-based; conditions: in vivo, 360 h, dose 5-2000 mg/kg, time 15 day
[27] = Toxicity in Wistar rat assessed as effect on relative weight of spleen at 5 to 2000 mg/kg, po and measured on day 15; assay type: organism-based; conditions: in vivo, 360 h, dose 5-2000 mg/kg, time 15 day
[28] = Toxicity in Wistar rat assessed as effect on relative weight of lungs at 5 to 2000 mg/kg, po and measured on day 15; assay type: organism-based; conditions: in vivo, 360 h, dose 5-2000 mg/kg, time 15 day
HepG2 [29] = assay: Induction of apoptosis in human HepG2 cells assessed as late apoptotic cells by measuring orange coloured nucleus at IC50 incubated for 24 hrs by EtBr/AO staining based fluorescence microscopic analysis; assay type: functional, cell-based
[30] = Toxicity in Wistar rat assessed as effect on food consumption at 5 to 2000 mg/kg, po and observed for 14 days; assay type: organism-based; conditions: in vivo, 336 h, dose 5-2000 mg/kg, time 14 day
MCF7 [31] = assay: Antimigratory activity against human MCF7 cells assessed as wound healing at IC50 incubated for 24 hrs by inverted microscopic analysis (reference value: 27.64 %); assay type: functional
HUVEC [32] = assay: Induction of apoptosis in human HUVEC assessed as early apoptotic cells at IC50 incubated for 48 hrs by annexin V-FITC and PI staining based flow cytometry (reference value: <1%); assay type: functional
HepG2 [33] = assay: Induction of DNA damage in human HepG2 cells assessed as increase in length of comet tail with decrease in nuclear DNA content with complete DNA damage at IC50 incubated for 24 hrs by Comet assay; assay type: functional, cell-based
HUVEC [34] = assay: Induction of apoptosis in human HUVEC assessed as late apoptotic cells at IC50 incubated for 48 hrs by annexin V-FITC and PI staining based flow cytometry; assay type: functional
HepG2 [35] = assay: Antimigratory activity against human HepG2 cells assessed as reduction in cell migration at IC50 incubated for 24 hrs by transwell migration assay; assay type: functional, cell-based
[36] = Toxicity in Wistar rat assessed as effect on body weight at 5 to 300 mg/kg, po and observed for 14 days; assay type: organism-based; conditions: in vivo, 336 h, dose 5-300 mg/kg, time 14 day
[37] = Toxicity in Wistar rat assessed as effect on relative weight of kidney at 5 to 2000 mg/kg, po and measured on day 15; assay type: organism-based; conditions: in vivo, 360 h, dose 5-2000 mg/kg, time 15 day
[38] = Toxicity in Wistar rat assessed as effect on relative weight of heart at 5 to 2000 mg/kg, po and measured on day 15; assay type: organism-based; conditions: in vivo, 360 h, dose 5-2000 mg/kg, time 15 day
[39] = Toxicity in female Wistar rat assessed as periodic body stretching at 2000 mg/kg, po observed for 48 hrs; assay type: organism-based; conditions: in vivo

CC(=O)Nc1ccc(Oc2cccc3c(NC(=O)Nc4cccc(C(F)(F)F)c4)cccc23)cc1
Activity [1]: Toxic | Flu intensity [2]: 21.41 | Activity [3]: Non-Toxic | Activity (MDA-MB-231 [4]): 0.3% | Activity (HepG2 [5]): 46.7% | Activity (HepG2 [6]): 20.44% | IC50 (MDA-MB-231 [7]): 3580 nM | inhibition (MDA-MB-231 [7]): Dose-dependent effect | Activity (HepG2 [8]): Active | Activity [9]: Non-Toxic | Activity [10]: Toxic | Activity (HepG2 [11]): Active | Activity [12]: Non-Toxic | Retention_time [13]: 10.17 min | inhibition (MCF7 [14]): Dose-dependent effect | IC50 (HepG2 [15]): 1170 nM | inhibition (HepG2 [15]): Dose-dependent effect | Activity (HepG2 [16]): Active | MRT [17]: 14.3 h | Activity (Chorioallantoic membrane): Dose-dependent effect | Activity [18]: Non-Toxic | LD50 [19]: > 2000 mg/kg | inhibition (MDA-MB-231 [20]): Dose-dependent effect | IC50 (MDA-MB-231 [20]; MDA-MB-231, 24 h): 1410 nM | Activity [21]: Non-Toxic | Flu intensity [22]: 18.41 | Activity [23]: Non-Toxic | Activity [24]: Non-Toxic | AUC(0-t) [25]: 621 µg·h/mL | Activity [26]: Non-Toxic | Activity [27]: Non-Toxic | Activity [28]: Non-Toxic | Activity (HepG2 [29]): Active | Activity [30]: Non-Toxic | Activity (MCF7 [31]): 3.02% | Activity (HUVEC [32]): 37.53% | Activity (HepG2 [33]): Active | Activity (HUVEC [34]): 6.09% | Activity (HepG2 [35]): Active | Activity [36]: Non-Toxic | Activity [37]: Non-Toxic | Activity [38]: Non-Toxic | Activity [39]: Toxic
